Structures can show the parent of a compound that is named as a salt.
How the values were obtained:
[1] = system: Abcd1−/Abcd2−/− (DKO) mice spinal cord; assay: Immunohistological analysis of axonal pathologies in Abcd1−/Abcd2−/− (DKO) mice spinal cord; format: in vivo; settings: 18 months of age, DMF 100 mg/kg in chow for 6 months
Description: (§1) a-x) Immunohistological analysis of axonal pathologies performed in 18-month-old WT, Abcd1^−/Abcd2^−/− (DKO) and Abcd1^−/Abcd2^−/− mice treated with DMF (DKO+DMF) (n=5 per genotype and condition). Spinal cord immunohistological sections were processed for (a-c) Iba1, (d-f) GFAP, (g-i) Synaptophysin, (j-l) APP, (m-o) Sudan black, (p-r) 8-oxo-dG, (s-u) CYT C and (v-x) SMI-32 immunostaining. Representative images for (a, d, g, j, m, p, s, v) WT, (b, e, h, k, n, q, t, w) DKO, and (c, f, i, l, o, r, u, x) DKO+DMF are shown. Scale bars=25 μm (a-r) and […] (s-x). y) Quantification of synaptophysin and APP accumulations in spinal cord immunohistological sections of WT (n=5), DKO (n=5) and DKO+DMF (n=5) mice. z) Bar-cross and treadmill tests performed on 18-month-old WT (n=14), Abcd1^−//Abcd2^−/− (DKO) (n=16) and Abcd1^−//Abcd2^−/− mice treated with DMF (DKO+DMF) (n=14). […] Values are expressed as mean±SD (*p<0.05, **p<0.01, ***p<0.001 after one-way ANOVA test followed by Tukey's post hoc test; p<0.05, p<0.001 after non-parametric Kruskal-Wallis' test).
(§2) To address the therapeutic effect of DMF, we assessed the clinical signs of AMN in Abcd1^−/Abcd2^−/− (DKO) mice, which display increased VLCFA accumulation in the spinal cord, higher levels of oxidative damage to proteins, and a more severe AMN-like pathology with an earlier onset at 12 months of age.
For biochemical analysis, we killed the mice and stored the tissues at −80° C. after snap-freezing them in liquid nitrogen. For histological analysis, spinal cord was harvested from 18-month-old mice after perfusing them with 4% paraformaldehyde (PFA; Sigma-Aldrich, Ref. 441244) in 0.1 M phosphate buffer pH 7.4. Histological and behavioural tests were performed in a blind way with respect to the animal's genotype and for the treatment administered.
To evaluate the effect of DMF on axonal degeneration and locomotor impairment in X-ALD, Abcd1^−/Abcd2^−/− mice (DKO) were fed with chow including DMF (100 mg/kg).

[2] = Tolerability of dietary DMF in mice (weight, food intake, adverse events); settings: DMF 100 mg/kg/day in chow
Description: We used male mice of a pure C57BL/6J background. All methods employed in this study were in accordance with the Guide for the Care and Use of Laboratory Animals (Guide, 8th edition, 2011, NIH) and European (2010/63/UE) and Spanish (RD 53/2013) legislation. Experimental protocol had been approved by IDIBELL, IACUC (Institutional Animal Care and Use Committee) and regional authority (3546 DMAH, Generalitat de Catalunya, Spain). IDIBELL animal facility has been accredited by The Association for Assessment and Accreditation of Laboratory Animal Care (AAALAC, Unit 1155). Animals were housed at 22° C. on specific-pathogen free conditions, in a 12-hour light/dark cycle, and ad libitum access to food and water. Cages contained 3 to 5 animals.
DMF was mixed into AIN-76A chow from Dyets (Bethlehem, Pa., USA) to provide a dose of 100 mg/kg/day. Human equivalent dose would be 8 mg/kg/day ([…] in a typical 60 kg person). This is equivalent to the starting dose of BG-12/Tecfidera that is 120 mg twice a day for MS patients (EMA/204830/2013).
For the characterization of biochemical signs on adult X-ALD mice, 8-months-old animals were randomly assigned to one of the following dietary groups for 4 months.
Group I: wild-type (WT) mice received normal AIN-76A chow (n=12); group II: Abcd1^− mice received normal AIN-76A chow (n=12); group III: Abcd1^− mice received AIN-76A chow containing DMF (n=12). To evaluate the effect of DMF on the clinical signs of AMN-like pathology, 12-months-old animals were randomly assigned to one of the following dietary groups for 6 months. Group I: WT mice received normal AIN-76A chow (n=14); group II: Abcd1^−/Abcd2^−/− mice received normal AIN-76A chow (n=16); group III: Abcd1^−/Abcd2^−/− mice received AIN-76A chow containing DMF (n=14).

[3] = system: Abcd1−/Abcd2−/− (DKO) mice; assay: Bar cross and treadmill tests in Abcd1−/Abcd2−/− (DKO) mice; format: in vivo; settings: 18 months of age, end of treatment, DMF 100 mg/kg in chow for 6 months
Description: as §1
as §2, with “age. […]” for “age.”

[4] = any treatment protocol (4 or 6 months)

SMILES: COC(=O)/C=C/C(=O)OC [DMF, dimethyl fumarate]
- accumulation of APP in axons ([1]; DKO mice spinal cord): prevented the accumulation
- accumulation of synaptophysin in axons ([1]; DKO mice spinal cord): prevented the accumulation
- astrocytosis (GFAP) ([1]; DKO mice spinal cord): reversed
- microgliosis (Iba1) ([1]; DKO mice spinal cord): reversed
- mitochondrial levels (CYT C staining in motor neurons) ([1]; DKO mice spinal cord): improved
- motor neurons health (SMI-32 staining) ([1]; DKO mice spinal cord): improved
- oxidative damage to DNA (8-oxo-dG staining) ([1]; DKO mice spinal cord): reduced
- myelin debris along the spinal cord (Sudan black) ([1]; DKO mice): halted the appearance
- adverse events or death during treatment ([2]; 4 or 6 months): none of the mice administered with DMF experienced any adverse events or death
- effect on food intake [2, 4]: no effect
- effect on weight [2, 4]: no effect
- bar cross test (number of slips and time to cross the bar) [3]: behaved similar to WT mice
- treadmill test (number and duration of shocks) [3]: improved the performance of DKO mice in this test, up to the level of WT mice

Reference: US11382889B2, “NRF2 activators for the prevention and/or treatment of axonal degeneration” (priority 2018, dated 2022)
